From US8242058B2, “Reagents and methods for appending functional groups to proteins” (Wisconsin Alumni Research Foundation, priority 2006, dated 2012)
One block for each molecule: values may come before it.

Assays:
[1] = cited from earlier work
[2] = Kinetics of thioester cleavage (release of thiophenolate, absorbance at 410 nm); settings: for rate constants (k2 and k1) for thioester cleavage / fold greater k1 value than ethyl amine: pH 7.0, 25° C.; for fold greater k1 value than ethyl amine: pseudo-unimolecular conditions
Protocol: To identify the optimal nitrogen nucleophile for a thioester, kinetic studies were performed on a model chromogenic thioester: AcGlySC6H4-p-NO2. The rate of release of the thiophenolate anion was monitored by measuring the change in absorbance at 410 nm (Scheme 1). Nitrogen nucleophiles with conjugate-acid pKa values ranging from 4.6 to 10.6 (Table 1) were used in the experiments. The logarithmic values of the second-order rate constants (k2) of the unprotonated primary amines were plotted against the pKa values of their conjugate acids to yield the Brønsted plot shown in FIG. 2A. The data were fitted to the equation^[26]: log k2=log(AB)+(β+β′)pKa−log(A10^βpK^a+B10^β′pK^a) (1) In eq 1, A and B are constants, β′ is the slope of the former part of the Brønsted plot, and β is the slope of the latter part.
Kinetics of thioester cleavage: AcGlySC6H4-p-NO2 was dissolved in anhydrous acetonitrile to a concentration of 0.45 mM and used immediately. Amine solutions (except CF3CH2NH2.HCl) were prepared by dissolving the amine hydrochloride salts in 0.10 M sodium phosphate buffer at pH 7.0 to a concentration of 0.15 M. Reaction mixtures were prepared in a 1,1-mL volume and equilibrated at 25° C. All reactions contained […] acetonitrile. The ionic strength of each reaction mixture was I=0.22-0.25. All reactions were carried out with a large excess of amine and followed pseudo-first-order kinetics. In a cuvette containing 0.10 M sodium phosphate buffer at pH 7.0 (967 μL), amine solution (0.15 M, 100 μL) was added and the absorbance at 410 nm was adjusted to zero. The thioester (33 μL of a 0.45 mM solution in acetonitrile) was then added to the cuvette, and the absorbance at 410 nm was monitored with time (ε=11,230 M^−1cm^−1 for p-nitrothiophenolate anion). […] This value is likely to be lower in an aqueous buffer, such that the ionization of the p-nitrothiophenol product is virtually complete in all our assays. The final concentration of the thioester in the reaction was 13.64 μM and the final concentration of the amines (except CF3CH2NH2.HCl) was 13.64 mM. Each reaction was performed in triplicate. The reactions were allowed to go to completion, and the t1/2 was determined from the kinetic trace. The t1/2 was corrected by subtracting the t1/2 for hydrolysis from the observed value. Pseudo-first-order rate constants were calculated by using the equation k1=0.693/t1/2. Second-order rate constants were obtained by dividing each observed first-order rate constant by the concentration of free amine. Logarithmic values of second-order rate constants were plotted against the pKa values of the conjugate acids of the respective amines to yield a Brønsted plot.
Using a higher buffer concentration was not ideal, as that would increase the ionic strength to a much value much larger than that in other reaction mixtures. To overcome these problems, the reaction with CF3CH2NH2 was carried out using 40.92 mM CF3CH2NH2.HCl and allowing the pH of the reaction mixture to decrease to 5.8. The observed t12 was corrected by subtracting the t12 for hydrolysis at pH 5.8. The second-order rate constant was calculated by accounting for the concentration of free amine at pH 5.8, and the resulting value was used in the Brønsted plot. The first-order rate constant thus obtained was not compared to those for the other nucleophiles.

[3] = molecular target: T1, Met(−1)RNase A-Gly-mxe intein thioester (UniProt P20533+P61823); assay: On-resin cleavage of the intein fusion protein thioester; settings: on chitin resin
T1 construct: made in house; host or cells: E. coli BL21 (DE3), plasmid pJK01
T1 sequence (P61823+P20533 with tags, fused parts or gaps): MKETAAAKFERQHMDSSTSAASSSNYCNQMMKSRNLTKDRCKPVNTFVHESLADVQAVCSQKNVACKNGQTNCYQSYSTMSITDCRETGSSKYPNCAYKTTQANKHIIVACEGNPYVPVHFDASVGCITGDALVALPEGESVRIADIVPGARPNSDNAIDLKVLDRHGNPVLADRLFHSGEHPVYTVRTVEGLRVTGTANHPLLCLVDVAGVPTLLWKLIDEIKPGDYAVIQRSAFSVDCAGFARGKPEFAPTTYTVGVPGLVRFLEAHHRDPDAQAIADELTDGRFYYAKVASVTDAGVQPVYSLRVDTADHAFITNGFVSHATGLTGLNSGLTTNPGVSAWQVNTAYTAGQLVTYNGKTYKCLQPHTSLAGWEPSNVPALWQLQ
Description: Next, we sought to use our bifunctional reagents to install an azido group at the C terminus of a model protein. As our protein, we chose bovine pancreatic ribonuclease (RNase A), which has been the object of much seminal work in protein chemistry and has been manipulated previously with expressed protein ligation. RNase A has valine as its C-terminal residue. A valine residue at the C terminus of a target protein is known to have a debilitating effect on the cleavage efficiency of protein-intein thioesters. To avert this problem, we inserted a glycine residue between the C terminus of RNase A and the intein. The resulting Met(−1)RNase A-Gly-mxe intein-chitin-binding domain fusion protein (MW ˜36 kDa) was produced in E. coli, and the cell lysate was loaded onto chitin resin. Azides 1 and 2 were used to induce the on-resin cleavage of the fusion protein. […] The purity of the azido-RNase A (even upon elution from the chitin column) was apparent from SDS-PAGE analysis (FIG. 3A); the integrity of the azido-RNase A was verified by using MALDI-TOF mass spectrometry (FIG. 3B). This procedure produced an overall yield of ˜1 mg of purified azido-RNase A per liter of E. coli culture. […]

[4] = Storage stability of the reagent; assay type: physicochemical; settings: TFA salt, storage under vacuum
Description: Azide 2 was synthesized by the route in Scheme 3. Briefly, 4-pentenoic acid was subjected to ozonolysis, and the resulting aldehyde was reacted in-situ with Boc-protected hydrazine. The azido group was installed by coupling 1-azido-2-aminoethane (4) to the carboxylic acid. The hydrazone was then reduced selectively with NaCNBH3. The Boc group was removed to produce azide 2 as its trifluoroacetic acid (TFA) salt with an overall yield of 26% (which includes the 80% yield for the synthesis of azide 3).

[5] = test system: 6-carboxyfluorescein-dArU(dA)2-6-carboxytetramethylrhodamine; assay: RNase A activity assay on immobilized RNase A; assay type: biochemical; settings: chip overlaid with 10 μM protein, pH 6.0
Protocol: RNase A activity assay on immobilized RNase A. A phosphinothioester chip was overlaid with azido-RNase A (10 μM in 5% DMF/H2O) for 15 min in Ar(g) atmosphere in an AtmosBag™ to immobilize RNase A via Staudinger ligation. The chip was rinsed with sodium phosphate buffer (25 mM) at pH 7.5 (2×20 mL) and then introduced into a vial containing 2-(N-Morpholino)ethanesulfonic acid buffer (0.1 M) at pH 6.0 (22 mL, containing 0.1 M NaCl). A fluorogenic substrate of RNase A, 6-carboxyfluorescein-dArU(dA)2-6-carboxytetramethylrhodamine (10 μl of a 40 μM solution), was introduced into the vial. The vial was placed on a shaker and 2 mL aliquots were withdrawn at various time intervals and the fluorescence measured (λex=493 nm, λem=515 nm). The fluorescence intensity was plotted against time. A phosphinothioester chip was overlaid with wt-RNase A (10 μM in 5% DMF/H2O) and rinsed with sodium phosphate buffer (25 mM) at pH 7.5 (2×20 mL) and a similar assay was performed. As a negative control, a similar assay was performed on a phosphinothioester chip which was not overlaid with RNase A. The percentage of the fluorescent substrate cleaved at various time intervals were subtracted from the corresponding values for the negative control to generate the graph in FIG. 8.

[6] = molecular target: T2, ribonuclease inhibitor protein (RI) (Homo sapiens, UniProt P13489); assay: RI binding to immobilized RNase A (immunoassay, ellipsometry); settings: RI 10 μM, 10 min at 4° C.
T2 sequence (P13489 2-461 limits assumed): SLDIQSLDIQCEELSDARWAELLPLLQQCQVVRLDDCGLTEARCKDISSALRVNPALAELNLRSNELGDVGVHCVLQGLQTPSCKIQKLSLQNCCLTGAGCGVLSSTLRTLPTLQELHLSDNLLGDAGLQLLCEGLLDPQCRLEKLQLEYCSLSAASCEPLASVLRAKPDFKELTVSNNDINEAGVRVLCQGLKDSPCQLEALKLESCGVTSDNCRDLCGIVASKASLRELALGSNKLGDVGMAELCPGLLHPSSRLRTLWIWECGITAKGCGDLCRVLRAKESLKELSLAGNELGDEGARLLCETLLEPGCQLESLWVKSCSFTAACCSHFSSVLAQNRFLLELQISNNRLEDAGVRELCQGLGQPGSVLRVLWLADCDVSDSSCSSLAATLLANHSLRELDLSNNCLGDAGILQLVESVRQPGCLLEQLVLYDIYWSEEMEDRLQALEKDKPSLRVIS
Protocol: RI binding to immobilized RNase A. Azido-RNase A (1 μL, 10 μM in 5% DMF/water) was spotted on phosphinothioester-displaying SAMs on a gold chip for 15 minutes at r.t. in an AtmosBag™ filled with Ar(g). The chip was taken out of the bag and rinsed with sodium phosphate buffer (25 mM) at pH 7.5 (2×20 mL) and incubated in the same buffer for 30 min to remove non-specifically bound RNase A. RI (10 μM in sodium phosphate buffer (25 mM) at pH 7.5 containing 10 mM DTT) was overlaid on the chip for 10 min at 4° C. The chip was then rinsed with sodium phosphate buffer (25 mM) at pH 7.5 containing 10 mM DTT (2×20 mL) and incubated in the same buffer for 15 min.
Detection of RI bound to immobilized RNase A. (i) Immunoassay: After RI binding, the chip was overlaid with bovine serum albumin (2.0 mg/mL in sodium phosphate buffer (25 mM) at pH 7.5) for 15 min. The chip was rinsed with sodium phosphate buffer (25 mM) at pH 7.5 (2×20 mL) and subsequently incubated with chicken primary antibody to RI (12.5 μg/mL in sodium phosphate buffer (25 mM) at pH 7.5) for 15 min. […] The chip was scanned with a Genomic Solutions® GeneTac UC4×4 Fluorescence Scanner using a gain of 50. […]

Molecule: NCCO [HOCH2CH2NH2]
- pKa of conjugate acid [1]: 9.50^[22]

Molecule: [N-]=[N+]=NCCNC(=O)CNN [azide 1, H2NNHCH2CONHCH2CH2N3]
- rate constants (k2 and k1) for thioester cleavage [2]: indistinguishable from those of the α-hydrazino acetyl group
- efficiency of cleaving the protein-intein thioester [3]: much more effective than azide 2

Molecule: COC(=O)CN [CH3O(O)CCH2NH2]
- pKa of conjugate acid [1]: 7.75^[22]

Molecule: CF3CO2H.H2NNHCH2CH2CH2CONHCH2CH2N3 [azide 2]
- rate constants (k2 and k1) for thioester cleavage [2]: much lower than those of methylhydrazine
- stability on storage [4]: unstable

Molecule: CON [CH3ONH2]
- pKa of conjugate acid [1]: 4.60^[22]

Molecule: CCN [CH3CH2NH2]
- nucleophilicity of unprotonated amines (k2, Brønsted plot) ([2]; all amines deprotonated, 25° C.): best nucleophile
- pKa of conjugate acid [1]: 10.63^[22]

Molecule: NCC(F)(F)F [F3CCH2NH2]
- nucleophilicity at pH 7.0 (aminolysis versus hydrolysis) ([2]; pH 7.0, standard reaction conditions): poor nucleophile
- pKa of conjugate acid [1]: 5.40^[23]

Molecule: CNN [CH3NHNH2]
- fold greater k1 value than ethyl amine [2]: 100 fold
- pKa of conjugate acid [1]: 7.87^[25]

Molecule: CCOC(=O)CNN [C2H5O(O)CCH2NHNH2]
- fold greater k1 value than ethyl amine [2]: 30 fold
- pKa of conjugate acid [1]: 6.45^[24]

- RI binding to chip incubated with the protein [6]: No RI binding was observed
B1: wild-type RNase A: bovine pancreatic ribonuclease (RNase A), unmodified wild-type, Sigma Chemical (protein, UniProt P61823 27-150, looked up)
Ribonuclease pancreatic: KETAAAKFERQHMDSSTSAASSSNYCNQMMKSRNLTKDRCKPVNTFVHESLADVQAVCSQKNVACKNGQTNCYQSYSTMSITDCRETGSSKYPNCAYKTTQANKHIIVACEGNPYVPVHFDASV
- enzymatic activity of chip incubated with the protein (increase of fluorescence intensity) [5]: small enzymatic activity
